From ChEMBL document CHEMBL4177573 (Bioorg Med Chem, 2017)

Columns and labels:
[1] = Total clearance in C57BL/6J mouse at 1 mg/kg, iv measured during 5 mins to 24 hrs by LC/MS/MS method; assay type: ADME, organism-based; conditions: in vivo
[2] = Volume of distribution at steady state in C57BL/6J mouse at 1 mg/kg, iv measured during 5 mins to 24 hrs by LC/MS/MS method; assay type: ADME, organism-based; conditions: in vivo, read-out: Vdss
Mus musculus [3] = assay: Drug level in C57BL/6J mouse at 1 mg/kg, iv measured during 5 mins to 24 hrs by LC/MS/MS method; assay type: ADME, organism-based; conditions: in vivo, read-out: Drug uptake
Mus musculus [4] = assay: Anorectic activity in C57BL/6J mouse assessed as inhibition of food intake at 0.3 mg/kg/day, sc dosed as […] and measured after 24 hrs; assay type: functional
[5] = AUC (0 to 24 hrs) in C57BL/6J mouse at 1 mg/kg, iv measured during 5 mins to 24 hrs by LC/MS/MS method; assay type: ADME, organism-based; set-up: dose 1 mg/kg, time < 24 hr, route intravenous; conditions: in vivo
[6] = Cmax in C57BL/6J mouse at 1 mg/kg, sc measured during 5 mins to 24 hrs by LC/MS/MS method; assay type: ADME, organism-based; set-up: dose 1 mg/kg, route subcutaneous; conditions: in vivo
[7] = Bioavailability in C57BL/6J mouse at 1 mg/kg, sc measured during 5 mins to 24 hrs by LC/MS/MS method; assay type: ADME, organism-based; conditions: in vivo
Mus musculus [8] = assay: Anorectic activity in C57BL/6J mouse assessed as inhibition of food intake at 0.3 mg/kg/day, sc dosed as […] and measured after 12 hrs; assay type: functional
Mus musculus [9] = assay: Antiobesity activity in DIO C57BL/6J mouse assessed as reduction in body weight at 0.01 mg/kg, sc for 2 weeks dosed as continuous administration by infusion of osmotic pumps; assay type: functional; conditions: 336 h
[10] = MRT in C57BL/6J mouse at 1 mg/kg, iv measured during 5 mins to 24 hrs by LC/MS/MS method; assay type: ADME, organism-based; conditions: in vivo
Mus musculus [11] = assay: Anorectic activity in C57BL/6J mouse assessed as inhibition of food intake at 0.03 mg/kg/day, sc for 3 days dosed as continuous administration by infusion using osmotic pump; assay type: functional; conditions: 72 h
[12] = Tmax in C57BL/6J mouse at 1 mg/kg, sc measured during 5 mins to 24 hrs by LC/MS/MS method; assay type: ADME, organism-based; conditions: in vivo
[13] = biological target: T1, Neuropeptide Y receptor type 2 (Homo sapiens, UniProt P49146); assay: Displacement of [125I]-PYY from human neuropeptide Y2 receptor expressed in CHO cell membranes incubated for 60 mins by TopCount based method
T1 sequence (P49146 whole entry): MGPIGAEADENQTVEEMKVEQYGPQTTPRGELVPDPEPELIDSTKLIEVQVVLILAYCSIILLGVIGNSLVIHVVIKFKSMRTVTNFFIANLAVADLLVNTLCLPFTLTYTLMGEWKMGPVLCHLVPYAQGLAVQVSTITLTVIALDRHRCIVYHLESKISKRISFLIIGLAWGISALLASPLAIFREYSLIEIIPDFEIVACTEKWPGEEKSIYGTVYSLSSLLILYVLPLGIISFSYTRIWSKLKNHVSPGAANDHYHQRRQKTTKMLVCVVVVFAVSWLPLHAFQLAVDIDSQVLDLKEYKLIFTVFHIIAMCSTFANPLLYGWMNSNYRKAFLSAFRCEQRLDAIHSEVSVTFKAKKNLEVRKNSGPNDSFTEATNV

Mus musculus [14] = assay: Antiobesity activity in DIO C57BL/6J mouse assessed as reduction in body weight at 1 mg/kg, sc […] for 2 weeks dosed by infusion of osmotic pumps; assay type: functional; conditions: 336 h
[15] = biological target: T1, Neuropeptide Y receptor type 2; assay: Agonist activity at human neuropeptide Y2 receptor expressed in CHO cell membranes assessed as stimulation of [35S]GTPgammaS binding incubated for 120 mins by liquid scintillation counting method; assay type: functional
[16] = AUC (0 to 24 hrs) in C57BL/6J mouse at 1 mg/kg, sc measured during 5 mins to 24 hrs by LC/MS/MS method; assay type: ADME, organism-based; set-up: time < 24 hr, dose 1 mg/kg, route subcutaneous; conditions: in vivo
[17] = MRT in C57BL/6J mouse at 1 mg/kg, sc measured during 5 mins to 24 hrs by LC/MS/MS method; assay type: ADME, organism-based; conditions: in vivo
Mus musculus [18] = assay: Anorectic activity in C57BL/6J mouse assessed as inhibition of food intake at 0.1 mg/kg/day, sc for 3 days dosed as continuous administration by infusion using osmotic pump; assay type: functional; conditions: 72 h

Row | clearance [1] | Vd [2] | concentration (Mus musculus [3]) | AUC(0-t) at 24 h [5] | Cmax [6] | bioavailability [7] | MRT [10] | Tmax [12] | IC50 [13] | EC50 [15] | AUC(0-t) at 24 h [16] | MRT [17] | Structure (SMILES) | inhibition in vivo at 0.3 mg/kg/day (Mus musculus [4]) | inhibition in vivo at 0.3 mg/kg/day (Mus musculus [8]) | inhibition in vivo at 0.01 mg/kg (Mus musculus [9]) | inhibition in vivo at 0.03 mg/kg/day (Mus musculus [11]) | inhibition in vivo at 1 mg/kg (Mus musculus [14]) | inhibition in vivo at 0.1 mg/kg/day (Mus musculus [18])
1 | 19.5 mL/min/kg | 0.41 L/kg | 1660 nM | 0.435 µM·h | 666 nM | 108% | 21 min | 15 min | 460 pM | 170 pM | 0.469 µM·h | 31.2 min | CC[C@](C)(NC(=O)[C@H](CC1CCCCC1)NC(=O)[C@H](Cc1ccncc1)NC(=O)[C@](C)(CC)NC(=O)[C@H]1C[C@H](O)CN1C(=O)[C@H](CO)NC(C)=O)C(=O)N[C@@H](CC(N)=O)C(=O)N[C@@H](CCCCN)C(=O)NC(C)(C)C(=O)N[C@H](C(=O)N[C@@H](CCCNC(=N)N)C(=O)N[C@@H](CCC(N)=O)C(=O)N[C@@H](CCCNC(=N)N)C(=O)N[C@@H](CC1CCCCC1)C(N)=O)[C@@H](C)O | 23% | 38% | 5% | 56% | 1.7% | –
2 | 41 mL/min/kg | 0.5 L/kg | 1270 nM | 0.232 µM·h | 227 nM | 53.7% | 12 min | 15 min | 1800 pM | 280 pM | 0.125 µM·h | 22.2 min | CC[C@](C)(NC(=O)[C@H]1CCCN1C(=O)[C@H](CO)NC(C)=O)C(=O)N[C@@H](Cc1ccncc1)C(=O)N[C@@H](CC1CCCCC1)C(=O)NC(C)(C)C(=O)N[C@@H](CC(N)=O)C(=O)N[C@@H](CCCCN)C(=O)NC(C)(C)C(=O)N[C@H](C(=O)N[C@@H](CCCNC(=N)N)C(=O)N[C@@H](CCC(N)=O)C(=O)N[C@@H](CCCNC(=N)N)C(=O)N[C@@H](CC1CCCCC1)C(N)=O)[C@@H](C)O | 7% | 22% | – | 46% | – | 68%
